The compounds below were run on immunoglobulin light chain protein WIL-FL T46L (assay: Differential scanning fluorimetry (thermal shift) assay). Details: Table A; temperature shift [Tm]compound-[Tm]vehicle; recombinant WIL-FL T46L.
Assay type: binding

| SMILES | DSF |
| --- | --- |
| Cc1cc(N2CC[C@](C)(c3ccccc3)C2)cn2nc(C(=O)NC3CCN(c4cccc(-c5nnn[nH]5)n4)CC3)nc12 [Compound 285] | ***** (>2.5° C.=*****) |
| Cc1cc(N2CC[C@](C)(c3ccccc3)C2)cn2nc(C(=O)N3CC4C(C3)C4C(=O)O)nc12 (some centres unmarked) [Compound 158] | ***** (>2.5° C.=*****) |
| Cc1cc(N2CCC(C)(c3ccccn3)C2)cn2nc(C(=O)NC3CCN(c4cccc(C(=O)O)n4)CC3)nc12 (centres unmarked) [Compound 34, 6-[4-[[8-methyl-6-[3-methyl-3-(2-pyridyl)pyrrolidin-1-yl]-[1,2,4]triazolo[1,5-a]pyridine-2-carbonyl]amino]-1-piperidyl]pyridine-2-carboxylic acid] | **** (>1.5-2.5° C.=****) |
| Cc1cc(N2CCC(C)(c3ccc(F)cc3)C2)cn2nc(C(=O)NC3CCN(c4ccnc(C(=O)O)c4)CC3)nc12 (centres unmarked) [Compound 422] | ***** (>2.5° C.=*****) |
| Cc1cc(N2CC[C@](c3ccccc3)(C(F)F)C2)cn2nc(C(=O)NC3CCN(c4ccnc(C(=O)O)c4)CC3)nc12 [Compound 330] | **** (>1.5-2.5° C.=****) |
| Cc1cc(N2CC[C@](C)(c3ccccc3)C2)cn2nc(C(=O)N3CC(O)C3)nc12 [Compound 128] | ***** (>2.5° C.=*****) |
| Cc1cc(N2CCC(C)(c3ccccc3)C2=O)cn2nc(C(=O)N3CC[C@@]4(CCN(c5cccc(C(=O)O)n5)C4)C3)nc12 (some centres unmarked) [Compound 386] | ** (>0.5-1 °C =**) |
| Cc1cc(N2CC[C@](C)(c3ccccc3)C2)cn2nc(C(=O)N3CC4CN(c5cccc(C(=O)O)n5)CC4(O)C3)nc12 (some centres unmarked) [Compound 246] | ***** (>2.5° C.=*****) |
| Cc1cc(N2CC[C@](C)(c3ccccc3)C2)cn2nc(C(=O)NC3CC4(C3)CC(C(=O)O)C4)nc12 (some centres unmarked) [Compound 112] | ***** (>2.5° C.=*****) |
| CCC1(c2ccccc2)CN(c2cc(C)c3nc(C(=O)N4CC5CN(c6cccc(C(=O)O)n6)CC5C4)nn3c2)C1 (centres unmarked) [Compound 393] | ***** (>2.5° C.=*****) |
| Cc1cc(N2CC[C@](C)(c3ccccc3)C2)cn2nc(C(=O)N3CC4(O)CC3C4)nc12 [Compound 146] | ***** (>2.5° C.=*****) |
| Cc1cc(N2CCC(C)(c3nn[nH]n3)C2)cn2nc(C(=O)N3C[C@@H]4CN(c5cccc(C(=O)O)n5)C[C@@H]4C3)nc12 (some centres unmarked) [Compound 401, 6-[5-[8-methyl-6-[3-methyl-3-(2H-tetrazol-5-yl)pyrrolidin-1-yl]-[1,2,4]triazolo[1,5-a]pyridine-2-carbonyl]-1,3,3a, 4,6,6a-hexahydropyrrolo[3,4-c]pyrrol-2-yl]pyridine-2-carboxylic acid] | * (0-0.5° C.=*) |
| Cc1cc(N2CC[C@](C)(c3ccccc3)C2)cn2nc(C(=O)N[C@H]3CNC[C@@H]3C(=O)O)nc12 [Compound 134] | ***** (>2.5° C.=*****) |
| Cc1cc(OC[C@H](C)c2cccc(F)c2)cn2nc(C(=O)NC3CCN(c4ccnc(C(=O)O)c4)CC3)nc12 [Compound 308] | ***** (>2.5° C.=*****) |
| Cc1cc(N2CC[C@](C)(c3ccccc3)C2)cn2nc(C34CC(CO3)C4CN3CCNC(=O)C3)nc12 (some centres unmarked) [Compound 84] | ***** (>2.5° C.=*****) |
| Cc1cc(N2CC[C@](C)(c3ccccc3)C2)cn2nc(C34CC(CN)(CO3)C4)nc12 [Compound 58] | ***** (>2.5° C.=*****) |
| Cc1cc(N2CC[C@](C)(c3ccccc3)C2)cn2nc(C(=O)NC3CCC(c4ccc(C(=O)O)c(F)c4)CC3)nc12 (some centres unmarked) [Compound 224] | ***** (>2.5° C.=*****) |
| Cc1cc(N2CC[C@](C)(c3ccc(Cl)cc3)C2)cn2nc(C(=O)N3C[C@@H]4CN(c5cccc(C(=O)O)n5)C[C@@H]4C3)nc12 [Compound 420] | ***** (>2.5° C.=*****) |
| Cc1cc(N2CC[C@](C)(c3ccccc3)C2)cn2nc(C(=O)N3CCC4(C3)CN(c3cccc(C(=O)O)n3)C4)nc12 [Compound 241] | ***** (>2.5° C.=*****) |
| CCS(=O)(=O)Nc1n[nH]c(C2C3COC2(c2nc4c(C)cc(N5CC[C@](C)(c6ccccc6)C5)cn4n2)C3)n1 (some centres unmarked) [Compound 93] | ***** (>2.5° C.=*****) |
| Cc1cc(N2CC[C@](C)(c3ccccc3)C2)cn2nc(C(=O)NC3CC4(C3)OCC4N3CCC(C(=O)O)CC3)nc12 (some centres unmarked) [Compound 359] | ***** (>2.5° C.=*****) |
| Cc1cc(N2CC[C@](C)(c3ccccc3)C2)cn2nc(C(=O)N[C@H]3CC[C@H](O)C3)nc12 [Compound 105] | ***** (>2.5° C.=*****) |
| Cc1cc(N2CC[C@](C)(c3ccccc3)C2)cn2nc(C34CC(CO3)C4Cn3cnc(C(N)=O)n3)nc12 (some centres unmarked) [Compound 90] | **** (>1.5-2.5° C.=****) |
| Cc1cc(N2CC[C@](C)(c3ccccc3)C2)cn2nc(C(=O)NC34CNCC3C4)nc12 (some centres unmarked) [Compound 185] | ***** (>2.5° C.=*****) |
| Cc1cc(N2CC[C@](C)(c3ccccc3)C2)cn2nc(C(=O)NC3CC4(C3)CC(N3C[C@@H](O)[C@@H](O)C3)C4)nc12 (some centres unmarked) [Compound 369] | ***** (>2.5° C.=*****) |
| Cc1cc(N2CC[C@](C)(c3ccccc3)C2)cn2nc(C(=O)NC(C)(C)CO)nc12 [Compound 153] | ***** (>2.5° C.=*****) |
| Cc1cc(N2CC[C@](C)(c3ccccc3)C2)cn2nc(C(=O)NC3CC(=O)N(c4ccnc(C(=O)O)c4)C3)nc12 (some centres unmarked) [Compound 243] | ***** (>2.5° C.=*****) |

Same assay, conditions: Table B; temperature shift [Tm]compound-[Tm]vehicle; recombinant WIL-FL T46L

| SMILES | DSF |
| --- | --- |
| Cc1cc(N2CC[C@](C)(c3ccccc3)C2)cn2nc(C(=O)N3CC4CCN(c5cccc(C(=O)O)n5)CC43)nc12 (some centres unmarked) [Compound 629] | ***** (>2.5° C.=*****) |
| Cc1cc(N2CC[C@](C)(c3ccccc3)C2)cn2nc(C(=O)N3CC[C@@]4(CCN(C(=O)c5cccc(C(=O)O)n5)C4)C3)nc12 [Compound 715] | ***** (>2.5° C.=*****) |
| Cc1nc(N2CC3(CC(NC(=O)c4nc5c(C)cc(N6CC[C@](C)(c7ccccc7)C6)cn5n4)C3)C2)ccc1C(=O)O [Compound 663] | ***** (>2.5° C.=*****) |
| Cc1cc(N2CC[C@](C)(c3ccccc3)C2)cn2nc(C(=O)N[C@H]3C[C@@]4(CCN(c5cccc(C(=O)O)n5)C4)C3)nc12 [Compound 624] | ***** (>2.5° C.=*****) |
| Cc1cc(N2CC[C@](C)(c3ccccc3)C2)cn2nc(C(=O)N3CC[C@H]4[C@@H]3CC(=O)N4c3cccc(C(=O)O)n3)nc12 [Compound 704, 6-((3aS,6aS)-4-(8-methyl-6-((R)-3-methyl-3-phenylpyrrolidin-1-yl)-[1,2,4]triazolo[1,5-a]pyridine-2-carbonyl)-2-oxohexahydropyrrolo[3,2-b]pyrrol-1(2H)-yl)picolinic acid] | ***** (>2.5° C.=*****) |
| Cc1cc(N2CC[C@](C)(c3ccccc3)C2)cn2nc(C(=O)N3CC[C@@]4(CCN(c5ccc(F)c(C(=O)O)n5)C4)C3)nc12 [Compound 711] | ***** (>2.5° C.=*****) |
| CCS(=O)(=O)Nc1n[nH]c(C2C3(CN)COC2(c2nc4c(C)cc(N5CC[C@](C)(c6ccccc6)C5)cn4n2)C3)n1 (some centres unmarked) [Compound 548] | ***** (>2.5° C.=*****) |
| Cc1cc(N2CC[C@](C)(c3ccccc3)C2)cn2nc(C(=O)N[C@@H]3CN(c4cccc(C(=O)O)n4)CC34CC4)nc12 [Compound 698] | ***** (>2.5° C.=*****) |
| Cc1nc([C@@H]2[C@]3(C(C)(C)O)CO[C@@]2(c2nc4c(C)cc(N5CC[C@](C)(c6ccccc6)C5)cn4n2)C3)n[nH]1 [Compound 542] | ***** (>2.5° C.=*****) |
| Cc1cc(N2CC[C@](C)(c3ccccc3)C2)cn2nc(C34CC(C(=O)NC(C)(C)C(=O)O)(CO3)C4)nc12 [Compound 440, (R)-2-methyl-2-(1-(8-methyl-6-(3-methyl-3-phenylpyrrolidin-1-yl)-[1,2,4]triazolo[1,5-a]pyridin-2-yl)-2-oxabicyclo[2.1.1]hexane-4-carboxamido)propanoic acid] | ***** (>2.5° C.=*****) |
| Cc1cc(N2CC[C@](C)(c3ccccc3)C2)cn2nc(C34CC(C(=O)O)(CO3)C4c3nc(N)n[nH]3)nc12 (stereo partly drawn) [Compound 545, 5-(3-amino-1H-1,2,4-triazol-5-yl)-1-[8-methyl-6-[(3R)-3-methyl-3-phenyl-pyrrolidin-1-yl]-[1,2,4]triazolo[1,5-a]pyridin-2-yl]-2-oxabicyclo[2.1.1]hexane-4-carboxylic acid] | ***** (>2.5° C.=*****) |
| Cc1cc(N2CC[C@](C)(c3ccccc3)C2)cn2nc(C34CC(C(=O)O)(CO3)C4C(=O)O)nc12 (stereo partly drawn) [Compound 537, 1-(8-methyl-6-((R)-3-methyl-3-phenylpyrrolidin-1-yl)-[1,2,4]triazolo[1,5-a]pyridin-2-yl)-2-oxabicyclo[2.1.1]hexane-4,5-dicarboxylic acid] | **** (>1.5-2.5° C.=****) |
| Cc1cc(N2CC[C@@](C)(c3cccc(F)c3)C2)cn2nc(C(=O)N3CC[C@@]4(CCN(c5cccc(C(=O)O)n5)C4)C3)nc12 [Compound 763, 6-((R)-7-(6-((S)-3-(3-fluorophenyl)-3-methylpyrrolidin-1-yl)-8-methyl-[1,2,4]triazolo[1,5-a]pyridine-2-carbonyl)-2,7-diazaspiro[4.4]nonan-2-yl)picolinic acid] | ***** (>2.5° C.=*****) |
| Cc1nc([C@H]2[C@@]3(C(C)(C)O)CO[C@]2(c2nc4c(C)cc(N5CC[C@](C)(c6ccccc6)C5)cn4n2)C3)n[nH]1 [Compound 541] | ***** (>2.5° C.=*****) |
| Cc1ccn(C2(C)CCN(c3cc(C)c4nc(C(=O)N5CC[C@@]6(CCN(c7cccc(C(=O)O)n7)C6)C5)nn4c3)C2)n1 (some centres unmarked) [Compound 745] | *** (>1-1.5° C.=***) |
| Cc1cc(N2CC[C@](C)(c3ccccc3)C2)cn2nc(C(=O)NCC3CCN(c4cccc(C(=O)O)n4)CC3)nc12 [Compound 647] | ***** (>2.5° C.=*****) |
| COC(C)(CC(=O)N1CC2(CC(NC(=O)c3nc4c(C)cc(N5CC[C@](C)(c6ccccc6)C5)cn4n3)C2)C1)C(=O)O (some centres unmarked) [Compound 679] | ***** (>2.5° C.=*****) |
| Cc1cc(N2CC[C@](C)(c3ccccc3)C2)cn2nc(C(=O)N3CC(C(=O)O)C4(COC4)C3)nc12 (some centres unmarked) [Compound 603] | ***** (>2.5° C.=*****) |
| Cc1cc(C2C3COC2(c2nc4c(C)cc(N5CC[C@](C)(c6ccccc6)C5)cn4n2)C3)[nH]n1 (some centres unmarked) [Compound 484] | ***** (>2.5° C.=*****) |
| Cc1cc(N2CC[C@](C)(c3ccccc3)C2)cn2nc(C34CC(CO3)C4c3nc(NC(=O)CC4(C(=O)O)CC4)n[nH]3)nc12 (some centres unmarked) [Compound 559] | ***** (>2.5° C.=*****) |

From US20260285857A1, “BICYCLIC AND HETEROCYCLIC AMIDE COMPOUNDS” (priority 2024, published 2026)
